Data published in PMC8955485, “Journey on VX-809-Based Hybrid Derivatives towards Drug-like F508del-CFTR Correctors: From Molecular Modeling to Chemical Synthesis and Biological Assays” (Pharmaceuticals, 2022).
Several values for one entry are separate records, joined by “and”; a condition that tells them apart may be missing. Identical values can stand only once. Like-named read-outs stand apart in the source and are kept apart here.

Assays:
[1] = biological target: T1, F508del-CFTR (Homo sapiens, UniProt P13569, DEL508-508); parameters: expressed in transfected cells; details: first series of hybrids, cited from earlier work; for pEC50: from EC50 of ref 27
[2] = biological target: T1, F508del-CFTR; experiment: HS-YFP functional assay for F508del-CFTR correctors in CFBE41o- cells; assay type: cell-based; parameters: expressed in transfected cells; details: CFBE41o- cells stably expressing F508del-CFTR and HS-YFP; 24 h incubation; stimulation with forskolin 20 µM plus VX-770 1 µM
Method: The ability of these compounds to correct the basic defects related to F508del mutant was evaluated on immortalized CFBE41o-bronchial epithelial cells stably expressing F508del-CFTR and the halide sensitive yellow fluorescent protein (HS-YFP).
The measurements of the rate of HS-YFP quenching caused by iodide influx allowed us to determine the activity of F508del-CFTR, after incubation with the compounds, as cited. Activity was then compared to that of cells treated with the corrector VX-809 (1 µM) or with vehicle alone (DMSO).
Within the novel third series of hybrids herein proposed, based on their potency and efficacy in terms of CFTR rescue, we selected six compounds and determined the dose–response relationships (Figure 6). To this aim, F508del-CFTR expressing CFBE41o-cells were treated for 24 h with our hybrids 9b, 9f, 9g, 9h, 9j, and 9y and then mutant CFTR activity was measured by using the YFP functional assay (see Materials and Methods section for details).
Immortalized bronchial epithelial CFBE41o-cells with stable co-expression of the halide-sensitive yellow fluorescent protein (HS-YFP) and of F508del-CFTR were cultured using MEM medium supplemented with 10% fetal calf serum, 100 U/mL penicillin, 2 mM L-glutamine, and […] streptomycin.
CFBE41o-cells co-expressing mutants CFTR and HS-YFP were plated (50,000 cells/well) on clear-bottom 96-well black microplates (Corning Life Sciences, Acton, MA) and grown at 37 °C in 5% CO2 for 24 h. For the corrector assay, CFBE41o-cells were treated for further 24 h with compounds as indicated. The following day, prior to the assay, the culture medium was removed and cells were stimulated for 30 min at 37 °C with 60 µL PBS (containing 137 mM NaCl, 2.7 mM KCl, 8.1 mM Na2HPO4, 1.5 mM KH2PO4, 1mM CaCl2, and 0.5 mM MgCl2) plus forskolin (20 µM) and VX-770 (1 µM).
Microplates containing CFBE41o-cells were then transferred to a plate reader (FluoStar Galaxy; BMG Labtech, Offenburg, Germany) equipped with excitation (HQ500/20X: 500 ± 10 nm) and emission (HQ535/30M: 535 ± 15 nm) filters for YFP (Chroma Technology, Brattleboro, VT, USA). During the assay fluorescence was measured continuously for 14 s with 2 s before and 12 s after injection of an iodide containing solution (165 µL of a modified PBS containing I^- instead of Cl^-; final I^- concentration in the well: 100 mM).
Fluorescence data were normalized for the initial value and fluorescence quenching rate following I^- influx, were determined by fitting the final 10 s of data for each well with an exponential function to extrapolate initial slope (dF/dt).
To evaluate the dose–response relationships, activity slopes obtained for each compound at the different concentrations were fitted with the Hill equation using the Igor software (WaveMetrics) to extrapolate EC50, maximal effect, and Hill coefficient.

T1 sequence (P13569 with tags, fused parts or gaps DEL508-508): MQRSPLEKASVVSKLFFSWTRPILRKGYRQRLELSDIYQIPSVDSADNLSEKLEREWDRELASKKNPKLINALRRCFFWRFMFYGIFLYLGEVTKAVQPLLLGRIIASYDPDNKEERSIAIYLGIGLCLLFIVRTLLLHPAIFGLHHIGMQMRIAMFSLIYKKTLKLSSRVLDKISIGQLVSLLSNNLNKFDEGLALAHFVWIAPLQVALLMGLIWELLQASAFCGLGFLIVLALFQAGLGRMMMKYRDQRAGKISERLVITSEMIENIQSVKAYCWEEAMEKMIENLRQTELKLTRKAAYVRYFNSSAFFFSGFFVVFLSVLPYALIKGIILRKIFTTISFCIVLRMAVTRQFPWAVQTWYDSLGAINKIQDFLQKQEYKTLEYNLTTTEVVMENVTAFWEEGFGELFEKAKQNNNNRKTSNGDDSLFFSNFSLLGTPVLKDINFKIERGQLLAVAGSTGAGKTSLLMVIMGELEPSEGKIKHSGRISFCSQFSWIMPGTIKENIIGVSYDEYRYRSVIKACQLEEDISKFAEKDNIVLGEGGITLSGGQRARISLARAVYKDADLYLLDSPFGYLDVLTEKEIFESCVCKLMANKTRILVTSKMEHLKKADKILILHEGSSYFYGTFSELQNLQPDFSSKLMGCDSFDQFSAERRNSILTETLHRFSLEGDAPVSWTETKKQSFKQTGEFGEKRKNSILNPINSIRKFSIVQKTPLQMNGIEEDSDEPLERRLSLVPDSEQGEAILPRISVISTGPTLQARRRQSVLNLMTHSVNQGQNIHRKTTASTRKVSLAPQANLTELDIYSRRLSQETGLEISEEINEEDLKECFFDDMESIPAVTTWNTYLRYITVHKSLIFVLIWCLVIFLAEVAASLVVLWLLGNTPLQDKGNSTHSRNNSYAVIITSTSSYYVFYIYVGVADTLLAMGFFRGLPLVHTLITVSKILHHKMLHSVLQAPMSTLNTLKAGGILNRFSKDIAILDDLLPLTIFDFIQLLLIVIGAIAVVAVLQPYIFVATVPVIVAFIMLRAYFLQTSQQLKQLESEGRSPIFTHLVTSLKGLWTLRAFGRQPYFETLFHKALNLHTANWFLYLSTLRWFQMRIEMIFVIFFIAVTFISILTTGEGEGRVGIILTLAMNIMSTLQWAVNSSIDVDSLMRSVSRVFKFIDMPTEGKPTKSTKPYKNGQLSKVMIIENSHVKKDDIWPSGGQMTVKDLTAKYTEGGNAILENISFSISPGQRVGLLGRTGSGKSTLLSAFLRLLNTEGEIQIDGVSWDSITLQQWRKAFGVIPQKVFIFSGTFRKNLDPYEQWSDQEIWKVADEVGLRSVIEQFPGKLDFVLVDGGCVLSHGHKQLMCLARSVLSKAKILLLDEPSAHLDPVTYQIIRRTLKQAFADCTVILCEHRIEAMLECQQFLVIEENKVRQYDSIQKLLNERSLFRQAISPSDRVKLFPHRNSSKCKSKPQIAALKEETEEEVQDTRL

Row | EC50 [2] [nM] | Compound | EC50 [1] | pEC50 [1] [M]
1 |  | O=C(c1ccccc1)c1sc(NC(=O)C2(c3ccc4c(c3)OCO4)CC2)nc1-c1ccccc1 [Compound 2a] | 87 nM | 7.06
2 |  | CCOC(=O)c1sc(NC(=O)C2(c3ccc4c(c3)OCO4)CC2)nc1-c1ccc(Br)cc1 [Compound 2b] | 300 nM | 6.52
3 |  | CCOC(=O)c1sc(NC(=O)C2(c3ccc4c(c3)OCO4)CC2)nc1-c1cccc(Cl)c1 [Compound 2c] | 550 nM | 6.26
4 |  | CCOC(=O)c1sc(NC(=O)C2(c3ccc4c(c3)OCO4)CC2)nc1-c1ccc(Cl)cc1 [Compound 2d] | 900 nM | 6.05
5 |  | Cc1sc(NC(=O)C2(c3ccc4c(c3)OCO4)CC2)nc1-c1ccc(Cl)cc1 [Compound 3a] | 2900 nM | 5.54
6 |  | Cc1sc(NC(=O)C2(c3ccc4c(c3)OCO4)CC2)nc1-c1ccc(Br)cc1 [Compound 3b] | 1900 nM | 5.72
7 |  | Cc1sc(NC(=O)C2(c3ccc4c(c3)OCO4)CC2)nc1-c1cccc(Cl)c1 [Compound 3c] | 2300 nM | 5.64
8 |  | Cc1sc(NC(=O)C2(c3ccc4c(c3)OCO4)CC2)nc1-c1ccccc1 [Compound 3d] | 1600 nM | 5.80
9 |  | Cc1sc(NC(=O)C2(c3ccc4c(c3)OCO4)CC2)nc1-c1ccc(F)cc1 [Compound 3e] | 900 nM | 6.05
10 |  | O=C(Nc1nc(-c2ccc(Cl)cc2)cs1)C1(c2ccc3c(c2)OCO3)CC1 [Compound 4a] | 2900 nM | 5.54
11 |  | O=C(Nc1nc(-c2ccc(Br)cc2)cs1)C1(c2ccc3c(c2)OCO3)CC1 [Compound 4b] | 4900 nM | 5.31
12 |  | O=C(Nc1nc(-c2cccc(Cl)c2)cs1)C1(c2ccc3c(c2)OCO3)CC1 [Compound 4c] | 8200 nM | 5.09
13 |  | O=C(Nc1nc(-c2ccc(I)cc2)cs1)C1(c2ccc3c(c2)OCO3)CC1 [Compound 4d] | 1200 nM | 5.92
14 |  | O=C(Nc1nc(-c2cccc(F)c2)cs1)C1(c2ccc3c(c2)OCO3)CC1 [Compound 4e] | 2100 nM | 5.68
15 |  | O=C(Nc1nc(-c2ccc(O)cc2)cs1)C1(c2ccc3c(c2)OCO3)CC1 [Compound 5a] | 1800 nM | 5.74
16 |  | O=C(Nc1nc(-c2cccc(O)c2)cs1)C1(c2ccc3c(c2)OCO3)CC1 [Compound 5b] | 2300 nM | 5.64
17 |  | Cc1sc(NC(=O)C2(c3ccc4c(c3)OCO4)CC2)nc1-c1cccc(O)c1 [Compound 5c] | 1200 nM | 5.92
18 |  | Cc1sc(NC(=O)C2(c3ccc4c(c3)OCO4)CC2)nc1-c1ccc(O)cc1 [Compound 5d] | 3900 nM | 5.41
19 |  | O=C(O)c1ccc(-c2csc(NC(=O)C3(c4ccc5c(c4)OCO5)CC3)n2)cc1 [Compound 5e] | > 5000 nM and 5000 nM | 5.30
20 |  | Cc1sc(NC(=O)C2(c3ccc4c(c3)OCO4)CC2)nc1-c1ccc(C(=O)O)cc1 [Compound 5f] | 2900 nM | 5.54
21 |  | CC(=O)Nc1ccc(-c2csc(NC(=O)C3(c4ccc5c(c4)OCO5)CC3)n2)cc1 [Compound 5g] | > 5000 nM and 5000 nM | 5.30
22 |  | Cc1sc(NC(=O)C2(c3ccc4c(c3)OC(F)(F)O4)CC2)nc1-c1ccc(Br)cc1 [Compound 6a] | 3800 nM | 5.42

Row | EC50 [2] [nM] | Compound | EC50 [1] | pEC50 [1] [M]
23 |  | Cc1sc(NC(=O)C2(c3ccc4c(c3)OC(F)(F)O4)CC2)nc1-c1cccc(Cl)c1 [Compound 6b] | 5400 nM | 5.27
24 |  | O=C(Nc1nc(-c2cccc(O)c2)cs1)C1(c2ccc3c(c2)OC(F)(F)O3)CC1 [Compound 6c] | 1300 nM | 5.89
25 |  | O=C(Nc1nc(-c2ccc(O)cc2)cs1)C1(c2ccc3c(c2)OC(F)(F)O3)CC1 [Compound 6d] | 1700 nM | 5.77
26 | 350 | COc1ccc(-c2nc(NC(=O)C3(c4ccc5c(c4)OCO5)CC3)sc2C(=O)c2ccccc2)cc1 [Compound 9a, 1-(benzo[d][1, 3]dioxol-5-yl)-N-(5-benzoyl-4-(4-methoxyphenyl)thiazol-2-yl)cyclopropane-1-carboxamide] |  | 
27 | 140 | COc1ccc(-c2nc(NC(=O)C3(c4ccc5c(c4)OCO5)CC3)sc2C(=O)c2ccc(OC(F)(F)F)cc2)cc1 [Compound 9c] |  | 
28 | 100 | COc1ccc(-c2nc(NC(=O)C3(c4ccc5c(c4)OCO5)CC3)sc2C(=O)c2ccc(SC)cc2)cc1 [Compound 9d] |  | 
29 | 560 | CCOC(=O)c1ccc(C(=O)c2sc(NC(=O)C3(c4ccc5c(c4)OCO5)CC3)nc2-c2ccc(OC)cc2)cc1 [Compound 9e] |  | 
30 | 140 | COc1ccc(-c2nc(NC(=O)C3(c4ccc5c(c4)OCO5)CC3)sc2C(=O)c2ccc(-c3ccccc3)cc2)cc1 [Compound 9f] |  | 
31 | 120 | COc1ccc(-c2nc(NC(=O)C3(c4ccc5c(c4)OCO5)CC3)sc2C(=O)c2cccc(OC)c2)cc1 [Compound 9h] |  | 
32 | 190 | COc1ccc(C(=O)c2sc(NC(=O)C3(c4ccc5c(c4)OCO5)CC3)nc2-c2cccc(OC)c2)cc1 [Compound 9i, 1-(benzo[d][1,3]dioxol-5-yl)-N-(5-(4-methoxybenzoyl)-4-(3-methoxyphenyl)thiazol-2-yl)cyclopropane-1-carboxamide] |  | 
33 | 360 | COc1cccc(-c2nc(NC(=O)C3(c4ccc5c(c4)OCO5)CC3)sc2C(=O)c2ccc(SC)cc2)c1 [Compound 9k] |  | 
34 | 490 | CCOC(=O)c1ccc(C(=O)c2sc(NC(=O)C3(c4ccc5c(c4)OCO5)CC3)nc2-c2cccc(OC)c2)cc1 [Compound 9l] |  | 
35 | 740 | COc1cccc(-c2nc(NC(=O)C3(c4ccc5c(c4)OCO5)CC3)sc2C(=O)c2ccc(-c3ccccc3)cc2)c1 [Compound 9m] |  | 
36 | 600 | COc1cccc(-c2nc(NC(=O)C3(c4ccc5c(c4)OCO5)CC3)sc2C(=O)c2ccc(N3CCCC3)cc2)c1 [Compound 9n] |  | 
37 | 210 | COc1cccc(C(=O)c2sc(NC(=O)C3(c4ccc5c(c4)OCO5)CC3)nc2-c2cccc(OC)c2)c1 [Compound 9o] |  | 
38 | 220 | COc1ccc(C(=O)c2sc(NC(=O)C3(c4ccc5c(c4)OCO5)CC3)nc2-c2ccccc2OC)cc1 [Compound 9p, 1-(benzo[d][1,3]dioxol-5-yl)-N-(5-(4-methoxybenzoyl)-4-(2-methoxyphenyl)thiazol-2-yl)cyclopropanecarboxamide] |  | 
39 | 150 | COc1ccccc1-c1nc(NC(=O)C2(c3ccc4c(c3)OCO4)CC2)sc1C(=O)c1ccc(OC(F)(F)F)cc1 [Compound 9q] |  | 
40 | 120 | COC(=O)c1ccc(-c2nc(NC(=O)C3(c4ccc5c(c4)OCO5)CC3)sc2C(=O)c2ccc(-c3ccccc3)cc2)cc1 [Compound 9r, Methyl 4-(5-([1,1′-biphenyl]-4-carbonyl)-2-(1-(benzo[d][1,3]dioxol-5-yl)cyclopropane-1-carboxamido)thiazol-4-yl)benzoate] |  | 
41 | 130 | CSc1ccc(-c2nc(NC(=O)C3(c4ccc5c(c4)OCO5)CC3)sc2C(=O)c2ccc(-c3ccccc3)cc2)cc1 [Compound 9s, N-(5-([1,1′-biphenyl]-4-carbonyl)-4-(4-(methylthio)phenyl)thiazol-2-yl)-1-(benzo[d][1,3]dioxol-5-yl)cyclopropane-1-carboxamide] |  | 
42 | 130 | O=C(c1ccc(-c2ccccc2)cc1)c1sc(NC(=O)C2(c3ccc4c(c3)OCO4)CC2)nc1-c1cccnc1 [Compound 9t, N-(5-([1,1′-biphenyl]-4-carbonyl)-4-(pyridin-3-yl)thiazol-2-yl)-1-(benzo[d][1,3]dioxol-5-yl)cyclopropane-1-carboxamide] |  | 
43 | 640 | O=C(c1ccc(-c2ccccc2)cc1)c1sc(NC(=O)C2(c3ccc4c(c3)OCO4)CC2)nc1-c1ccc(Cl)cc1 [Compound 9u, N-(5-([1,1′-biphenyl]-4-carbonyl)-4-(4-chlorophenyl)thiazol-2-yl)-1-(benzo[d][1,3]dioxol-5-yl)cyclopropane-1-carboxamide] |  | 
44 | 280 | COc1cccc(C(=O)c2sc(NC(=O)C3(c4ccc5c(c4)OCO5)CC3)nc2-c2ccc(SC)cc2)c1 [Compound 9v] |  | 
